biological target: T1, CRTH2 (Homo sapiens, UniProt Q9Y5Y4); test: FRET based competitive immunoassay (cAMP) in CRTH2 expressing CHO cells; type: cell-based; details: CRTH2 expressing CHO cells incubated with forskolin and PGD2; Eu3+ cryptate-labeled anti-cAMP and d2-labeled cAMP
T1 construct: expressed in transfected cells; host or cells: CHO cells
T1 sequence (Q9Y5Y4 1-395): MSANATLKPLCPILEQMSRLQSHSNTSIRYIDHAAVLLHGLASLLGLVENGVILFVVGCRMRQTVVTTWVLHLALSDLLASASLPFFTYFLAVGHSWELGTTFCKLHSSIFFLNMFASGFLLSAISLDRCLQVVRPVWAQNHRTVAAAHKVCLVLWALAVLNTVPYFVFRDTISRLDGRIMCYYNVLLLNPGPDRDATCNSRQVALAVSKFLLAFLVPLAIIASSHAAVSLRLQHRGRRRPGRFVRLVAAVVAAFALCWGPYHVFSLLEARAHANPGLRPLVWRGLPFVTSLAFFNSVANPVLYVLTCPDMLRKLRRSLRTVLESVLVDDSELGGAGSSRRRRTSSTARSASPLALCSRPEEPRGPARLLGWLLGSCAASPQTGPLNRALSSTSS
Experimental: FRET Assay: To evaluate potency compounds were tested in a FRET based competitive immunoassay in which CRTH2 expressing CHO cells were incubated in the presence of forskolin and PGD2 along with Eu3+ cryptate-labeled anti-cAMP and d2-labeled cAMP.

Structure (SMILES) | IC50 [nM]
Cc1c(-c2ccc(=O)n(Cc3cccc(F)c3F)c2)c2cc(F)ccc2n1[C@H](C)C(=O)O [Example 306b, (R)-2-(3-(1-(2,3-difluorobenzyl)-6-oxo-1,6-dihydropyridin-3-yl)-5-fluoro-2-methyl-1H-indol-1-yl)propanoic acid] | > 2000
Cc1c(-c2ccc(=O)n(CCC(F)(F)F)c2)c2cc(F)ccc2n1CC(=O)O [Example 307, 2-(5-fluoro-2-methyl-3-(6-oxo-1-(3,3,3-trifluoropropyl)-1,6-dihydropyridin-3-yl)-1H-indol-1-yl)acetic acid] | 28
Cc1c(-c2ccc(=O)n(Cc3ccncc3)c2)c2cc(F)ccc2n1CC(=O)O [Example 308, 2-(5-fluoro-2-methyl-3-(6-oxo-1-(pyridin-4-ylmethyl)-1,6-dihydropyridin-3-yl)-1H-indol-1-yl)acetic acid] | 35
Cc1c(-c2ccc(=O)n(Cc3ccccn3)c2)c2cc(F)ccc2n1CC(=O)O [Example 309, 2-(5-fluoro-2-methyl-3-(6-oxo-1-(pyridin-2-ylmethyl)-1,6-dihydropyridin-3-yl)-1H-indol-1-yl)acetic acid] | 105
Cc1c(-c2ccc(=O)n(Cc3cccc(F)c3F)c2)c2cc(F)ccc2n1CC#N [Example 310, 2-(3-(1-(2,3-difluorobenzyl)-6-oxo-1,6-dihydropyridin-3-yl)-5-fluoro-2-methyl-1H-indol-1-yl)acetonitrile] | > 1000
Cc1c(-c2ccc(=O)n(Cc3cccc(F)c3F)c2)c2cc(F)ccc2n1Cc1nn[nH]n1 [Example 311, 5-(1-((2H-tetrazol-5-yl)methyl)-5-fluoro-2-methyl-1H-indol-3-yl)-1-(2,3-difluoro-benzyl)pyridin-2(1H)-one] | > 1000
Cc1c(-c2ccc(=O)n(Cc3ccccc3)c2)c2cc(F)ccc2n1CC(=O)NS(=O)(=O)c1ccccc1 [Example 312, 2-(3-(1-benzyl-6-oxo-1,6-dihydropyridin-3-yl)-5-fluoro-2-methyl-1H-indol-1-yl)-N-(phenylsulfonyl)acetamide] | > 1000
Cc1c(-c2ccc(=O)n(Cc3ccccc3)c2)c2cc(F)ccc2n1CC(=O)NS(C)(=O)=O [Example 313, 2-(3-(1-Benzyl-6-oxo-1,6-dihydropyridin-3-yl)-5-fluoro-2-methyl-1H-indol-1-yl)-N-(methyl-sulfonyl)acetamide] | 32
Cc1ccccc1S(=O)(=O)NC(=O)Cn1c(C)c(-c2ccc(=O)n(Cc3ccccc3)c2)c2cc(F)ccc21 [Example 314, 2-(3-(1-Benzyl-6-oxo-1,6-dihydropyridin-3-yl)-5-fluoro-2-methyl-1H-indol-1-yl)-N-(o-tolyl-sulfonyl)acetamide] | > 1000
Cc1c(-c2ccc(=O)n(Cc3cccnc3)c2)c2cc(F)ccc2n1CC(=O)O [Example 315, 2-(5-fluoro-2-methyl-3-(6-oxo-1-(pyridin-3-ylmethyl)-1,6-dihydropyridin-3-yl)-1H-indol-1-yl)acetic acid] | 32
Cc1c(-c2ccc(=O)n(CCC(C(F)(F)F)C(F)(F)F)c2)c2cc(F)ccc2n1CC(=O)O [Example 316, 2-(5-fluoro-2-methyl-3-(6-oxo-1-(4,4,4-trifluoro-3-(trifluoromethyl)butyl)-1,6-dihydropyridin-3-yl)-1H-indol-1-yl)acetic acid] | 39
Cc1c(-c2ccc(=O)n(CCCC(F)(F)F)c2)c2cc(F)ccc2n1CC(=O)NS(=O)(=O)C1CC1 [Example 317, N-(cyclopropylsulfonyl)-2-(5-fluoro-2-methyl-3-(6-oxo-1-(4,4,4-trifluorobutyl)-1,6-dihydropyridin-3-yl)-1H-indol-1-yl)acetamide] | > 1000
Cc1c(-c2ccc(=O)n(CCCC(F)(F)F)c2)c2cc(F)ccc2n1CC(=O)NS(C)(=O)=O [Example 318, 2-(5-fluoro-2-methyl-3-(6-oxo-1-(4,4,4-trifluorobutyl)-1,6-dihydropyridin-3-yl)-1H-indol-1-yl)-N-(methylsulfonyl)acetamide] | > 1000
Cc1c(-c2ccc(=O)n(Cc3ccccc3)c2)c2cc(F)ccc2n1CC(=O)NS(=O)(=O)C1CC1 [Example 319, 2-(3-(1-Benzyl-6-oxo-1,6-dihydropyridin-3-yl)-5-fluoro-2-methyl-1H-indol-1-yl)-N-(cyclo-propyl-sulfonyl)acetamide] | > 1000
Cc1c(Cc2ccc(=O)n(Cc3ccc(F)cc3F)n2)c2cc(F)ccc2n1CC(=O)NS(C)(=O)=O [Example 320, 2-(3-((1-(2,4-difluorobenzyl)-6-oxo-1,6-dihydropyridazin-3-yl)methyl)-5-fluoro-2-methyl-1H-indol-1-yl)-N-(methylsulfonyl)acetamide] | > 1000
Cc1c(Cc2ccc(=O)n(Cc3ccc(F)c(F)c3)c2)c2cc(F)ccc2n1CC(=O)NS(C)(=O)=O [Example 321, 2-(3-((1-(3,4-difluorobenzyl)-6-oxo-1,6-dihydropyridin-3-yl)methyl)-5-fluoro-2-methyl-1H-indol-1-yl)-N-(methylsulfonyl)acetamide] | > 1000
Cc1c(-c2nn(CCOc3ccccc3)c(=O)c3ccccc23)c2cc(Cl)ccc2n1CC(=O)NS(C)(=O)=O [Example 322, 2-(5-Chloro-2-methyl-3-(4-oxo-3-(2-phenoxyethyl)-3,4-dihydrophthalazin-1-yl)-1H-indol-1-yl)-N-(methylsulfonyl)acetamide] | > 1000
Cc1c(-c2cn(Cc3ccccc3)c(=O)c3ccccc23)c2cc(F)ccc2n1CC(=O)NS(C)(=O)=O [Example 323, 2-(3-(2-benzyl-1-oxo-1,2-dihydroisoquinolin-4-yl)-5-fluoro-2-methyl-1H-indol-1-yl)-N-(methylsulfonyl)acetamide] | 518

The remaining lines, values ahead:

IC50 [nM] | Structure (SMILES)
6 | Cc1c(-c2ccc(=O)n(Cc3ccccc3)n2)c2cc(F)ccc2n1CC(=O)O [Example 324, 2-(3-(1-benzyl-6-oxo-1,6-dihydropyridazin-3-yl)-5-fluoro-2-methyl-1H-indol-1-yl)-acetic acid]
61 | Cc1c(-c2nn(C(C)C)c(=O)c3ccccc23)c2ccccc2n1CC(=O)O [Example 326, [3-(3-isopropyl-4-oxo-3,4-dihydrophthalazin-1-yl)-2-methyl-1H-indol-1-yl]acetic acid]
13 | Cc1c(-c2nn(CC(C)C)c(=O)c3ccccc23)c2cc(F)ccc2n1CC(=O)O [Example 327, {5-fluoro-2-methyl-3-[3-(2-methylpropyl)-4-oxo-3,4-dihydrophthalazin-1-yl]-1H-indol-1-yl}acetic acid]
12 | Cc1c(-c2nn(Cc3ccccc3)c(=O)c3ccccc23)c2cc(F)ccc2n1CC(=O)O [Example 328, [3-(3-benzyl-4-oxo-3,4-dihydrophthalazin-1-yl)-5-fluoro-2-methyl-1H-indol-1-yl]-acetic acid]
3 | Cc1c(-c2nn(Cc3cccc(F)c3)c(=O)c3ccccc23)c2cc(F)ccc2n1CC(=O)O [Example 329, {5-fluoro-3-[3-(3-fluorobenzyl)-4-oxo-3,4-dihydrophthalazin-1-yl]-2-methyl-1H-indol-1-yl}acetic acid]
15 | Cc1c(-c2nn(C(C)C)c(=O)c3ccccc23)c2cc(F)ccc2n1CC(=O)O [Example 330, {5-fluoro-2-methyl-3-[3-(1-methylethyl)-4-oxo-3,4-dihydrophthalazin-1-yl]-1H-indol-1-yl}acetic acid]
3 | Cc1c(-c2nn(Cc3ccc(Cl)cc3Cl)c(=O)c3ccccc23)c2cc(Cl)ccc2n1CC(=O)O [Example 331, {5-chloro-3-[3-(2,4-dichlorobenzyl)-4-oxo-3,4-dihydrophthalazin-1-yl]-2-methyl-1H-indol-1-yl}acetic acid]
26 | Cc1c(-c2nn(Cc3ccc(S(C)(=O)=O)cc3)c(=O)c3ccccc23)c2cc(Cl)ccc2n1CC(=O)O [Example 332, (5-chloro-2-methyl-3-{3-[4-(methylsulfonyl)benzyl]-4-oxo-3,4-dihydro-phthalazin-1-yl}-1H-indol-1-yl)acetic acid]
111 | Cc1c(-c2ccc(=O)n(CC(C)C)n2)c2cc(F)ccc2n1CC(=O)O [Example 333, 2-(5-fluoro-3-(1-isobutyl-6-oxo-1,6-dihydropyridazin-3-yl)-2-methyl-1H-indol-1-yl)acetic acid]
210 | Cc1c(-c2ccc(=O)n(C(C)C)n2)c2cc(F)ccc2n1CC(=O)O [Example 334, [5-fluoro-3-(1-isopropyl-6-oxo-1,6-dihydropyridazin-3-yl)-2-methyl-1H-indol-1-yl]-acetic acid]
5 | Cc1c(Cc2ccc(=O)n(Cc3cc(F)ccc3F)n2)c2cc(F)ccc2n1CC(=O)O [Example 336, (3-{[1-(2,5-difluorobenzyl)-6-oxo-1,6-dihydropyridazin-3-yl]methyl}-5-fluoro-2-methyl-1H-indol-1-yl)acetic acid]
10 | Cc1c(Cc2ccc(=O)n(Cc3ccccc3)n2)c2cc(F)ccc2n1CC(=O)O [Example 337, {3-[(1-benzyl-6-oxo-1,6-dihydropyridazin-3-yl)methyl]-5-fluoro-2-methyl-1H-indol-1-yl}acetic acid]
5 | Cc1c(Cc2ccc(=O)n(Cc3c(F)cccc3F)n2)c2cc(F)ccc2n1CC(=O)O [Example 338, (3-{[1-(2,6-difluorobenzyl)-6-oxo-1,6-dihydropyridazin-3-yl]methyl}-5-fluoro-2-methyl-1H-indol-1-yl)acetic acid]

From patent US20110105509A1 (Wyeth, LLC, priority 2009, published 2011)
